Values of other authors as cited in patent US7655212B2, “Production of silver sulfate grains using a fluorinated additive” (Eastman Kodak Company, priority 2008, dated 2010).

Experiments:
Conditions in all cases: in polymethylmethacrylate bone cement at 0.5% concentration
Pseudomonas aeruginosa = tested on: Pseudomonas aeruginosa
Escherichia coli = tested on: Escherichia coli
Staphylococcus aureus = tested on: Staphylococcus aureus

[Cl][Ag] [Silver chloride]
significantly inhibit: inhibition of bacterial growth of Pseudomonas aeruginosa (Pseudomonas aeruginosa) | inhibition of bacterial growth of Escherichia coli (Escherichia coli) | inhibition of bacterial growth of Staphylococcus aureus (Staphylococcus aureus)

O=S(=O)([O-])[O-].[Ag+].[Ag+] [silver sulfate]
significantly inhibit: inhibition of bacterial growth of Pseudomonas aeruginosa (Pseudomonas aeruginosa) | inhibition of bacterial growth of Escherichia coli (Escherichia coli) | inhibition of bacterial growth of Staphylococcus aureus (Staphylococcus aureus)

silver oxide
significantly inhibit: inhibition of bacterial growth of Pseudomonas aeruginosa (Pseudomonas aeruginosa) | inhibition of bacterial growth of Escherichia coli (Escherichia coli) | inhibition of bacterial growth of Staphylococcus aureus (Staphylococcus aureus)
